# Results published in ChEMBL document CHEMBL1201862, “PubChem BioAssay data set” (2004).
#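 In this assay, cells in 96-well plates receive the compound at five concentrations for 48 hours. Endpoints are linearly interpolated between the surrounding concentrations. Here, GI50 denotes the concentration required for 50% inhibition of growth.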 The source made the active and inactive calls. No stated cut-off is given here; in the data, active = GI50 up to about 1.1 µM and inactive = higher.
# How the values were obtained:
# Assay in all cases: growth of human tumour cells (NCI), 48 h
# [1] = test system: UO-31
# [2] = test system: DMS-114
# [3] = test system: SF-295
# [4] = test system: A549
# [5] = test system: SNB-78
# [6] = test system: HL-60
# [7] = test system: SF-539
# [8] = test system: SK-MEL-28
# [9] = test system: U-251
# [10] = test system: K562
# [11] = test system: 786-0
# [12] = test system: HOP-18
# [13] = test system: A498
# [14] = test system: SNB-75
# [15] = test system: NCI-H522
# [16] = test system: SNB-19
# [17] = test system: HOP-62
# [18] = test system: SF-268
# [19] = test system: DMS-273
# [20] = test system: OVCAR-5
# [21] = test system: COLO 205
# [22] = test system: DLD-1
# [23] = test system: NCI-H226
# [24] = test system: TK-10
# [25] = test system: UACC-257
# [26] = test system: SK-MEL-5
# [27] = test system: MOLT-4
# [28] = test system: KM-20L2
# [29] = test system: SW-620
# [30] = test system: CCRF-CEM
# [31] = test system: KM12
# [32] = test system: RXF 393
# [33] = test system: SR
# [34] = test system: XF498
# [35] = test system: LOX IMVI
# [36] = test system: IGROV-1
# [37] = test system: CAKI-1
# [38] = test system: OVCAR-3
# [39] = test system: M19-MEL
# [40] = test system: RPMI-8226
# [41] = test system: HCT-15
# [42] = test system: NCI-H23
# [43] = test system: OVCAR-8
# [44] = test system: Malme-3M
# [45] = test system: SN12C
# [46] = test system: HT-29
# [47] = test system: M14
# [48] = test system: UACC-62
# [49] = test system: RXF 631
# [50] = test system: HOP-92
# [51] = test system: SK-OV-3
# [52] = test system: LXFL 529
# [53] = test system: ACHN
# [54] = test system: NCI-H460
# [55] = test system: HCT-116
# [56] = test system: OVCAR-4
# [57] = test system: EKVX
# [58] = test system: HCC 2998
# [59] = test system: SK-MEL-2
structure (smiles),measurement,setting,value
O=C(/C=C/c1ccc(Cl)c(Cl)c1)c1ccccc1Cl,GI50,[1],14.5 µM (inactive)
same,GI50,[2],5.3 µM (inactive)
same,GI50,[3],13.7 µM (inactive)
same,GI50,[4],15.8 µM (inactive)
same,GI50,[5],15.5 µM (inactive)
same,GI50,[6],6.61 µM (inactive)
same,GI50,[7],3.63 µM (inactive)
same,GI50,[8],8.95 µM (inactive)
same,GI50,[9],5.64 µM (inactive)
same,GI50,[10],7.16 µM (inactive)
same,GI50,[11],5.32 µM (inactive)
same,GI50,[12],12.7 µM (inactive)
same,GI50,[13],17 µM (inactive)
same,GI50,[14],9.14 µM (inactive)
same,GI50,[15],11.8 µM (inactive)
same,GI50,[16],10.3 µM (inactive)
same,GI50,[17],18.7 µM (inactive)
same,GI50,[18],6.64 µM (inactive)
same,GI50,[19],6.47 µM (inactive)
same,GI50,[20],16.8 µM (inactive)
same,GI50,[21],16.1 µM (inactive)
same,GI50,[22],5.12 µM (inactive)
same,GI50,[23],16.6 µM (inactive)
same,GI50,[24],21.6 µM (inactive)
same,GI50,[25],14.3 µM (inactive)
same,GI50,[26],13.7 µM (inactive)
same,GI50,[27],27.7 µM (inactive)
same,GI50,[28],9.91 µM (inactive)
same,GI50,[29],4.91 µM (inactive)
same,GI50,[30],6.67 µM (inactive)
same,GI50,[31],8.13 µM (inactive)
same,GI50,[32],17.2 µM (inactive)
same,GI50,[33],4.42 µM (inactive)
same,GI50,[34],19.2 µM (inactive)
same,GI50,[35],13.2 µM (inactive)
same,GI50,[36],9.84 µM (inactive)
same,GI50,[37],9.89 µM (inactive)
same,GI50,[38],9.27 µM (inactive)
same,GI50,[39],7.18 µM (inactive)
same,GI50,[40],8.49 µM (inactive)
same,GI50,[41],5.45 µM
same,GI50,[42],13.4 µM (inactive)
same,GI50,[43],6 µM (inactive)
same,GI50,[44],16.6 µM (inactive)
same,GI50,[45],16.6 µM (inactive)
same,GI50,[46],6.07 µM (inactive)
same,GI50,[47],6.24 µM (inactive)
same,GI50,[48],12.8 µM (inactive)
same,GI50,[49],15.9 µM (inactive)
same,GI50,[50],16.7 µM (inactive)
same,GI50,[51],24.4 µM (inactive)
same,GI50,[52],7.41 µM (inactive)
same,GI50,[53],15.3 µM (inactive)
same,GI50,[54],11.6 µM (inactive)
same,GI50,[55],4.71 µM (inactive)
same,GI50,[56],14.1 µM (inactive)
same,GI50,[57],17.3 µM (inactive)
same,GI50,[58],10.5 µM (inactive)
CCCCCCCCCCCC(=O)OC(COC(N)=O)COc1ccc(Cl)cc1 (centres undefined),GI50,[1],32.9 µM (inactive)
same,GI50,[2],17.3 µM (inactive)
same,GI50,[3],20.3 µM (inactive)
same,GI50,[4],19.1 µM (inactive)
same,GI50,[5],24.3 µM (inactive)
same,GI50,[6],15.3 µM (inactive)
same,GI50,[7],18.8 µM (inactive)
same,GI50,[8],20.3 µM (inactive)
same,GI50,[9],25.8 µM (inactive)
same,GI50,[10],19.2 µM (inactive)
same,GI50,[11],35.8 µM (inactive)
same,GI50,[12],11.3 µM (inactive)
same,GI50,[13],65.9 µM (inactive)
same,GI50,[14],33.4 µM (inactive)
same,GI50,[15],17.1 µM (inactive)
same,GI50,[16],33.3 µM (inactive)
same,GI50,[17],25 µM (inactive)
same,GI50,[18],20.6 µM (inactive)
same,GI50,[19],20.9 µM (inactive)
same,GI50,[21],17 µM (inactive)
same,GI50,[22],38 µM (inactive)
same,GI50,[23],17.3 µM (inactive)
same,GI50,[24],30.6 µM (inactive)
same,GI50,[25],19.1 µM (inactive)
same,GI50,[26],17.6 µM (inactive)
same,GI50,[27],23.7 µM (inactive)
same,GI50,[28],37.8 µM (inactive)
same,GI50,[29],24.3 µM (inactive)
same,GI50,[30],18.2 µM (inactive)
same,GI50,[31],25.8 µM (inactive)
same,GI50,[32],21 µM (inactive)
same,GI50,[34],21.4 µM (inactive)
same,GI50,[35],23.2 µM (inactive)
same,GI50,[36],27.5 µM (inactive)
same,GI50,[37],21.3 µM (inactive)
same,GI50,[38],16.3 µM (inactive)
same,GI50,[39],18.6 µM (inactive)
same,GI50,[40],22.1 µM (inactive)
same,GI50,[41],28 µM
same,GI50,[42],20.7 µM (inactive)
same,GI50,[43],17.7 µM (inactive)
same,GI50,[44],21.9 µM (inactive)
same,GI50,[45],26.7 µM (inactive)
same,GI50,[46],20 µM (inactive)
same,GI50,[47],20.1 µM (inactive)
same,GI50,[48],19.5 µM (inactive)
same,GI50,[49],26.2 µM (inactive)
same,GI50,[51],> 100 µM (inactive)
same,GI50,[52],20.8 µM (inactive)
same,GI50,[59],24.5 µM (inactive)
same,GI50,[53],> 100 µM (inactive)
same,GI50,[54],23.7 µM (inactive)
same,GI50,[55],15.9 µM (inactive)
same,GI50,[56],19.1 µM (inactive)
same,GI50,[57],30.1 µM (inactive)
same,GI50,[58],30.5 µM (inactive)
